Assay results: US20220274954A1, “SUBSTITUTED N-PHENYL-N-AMINOUARCILS AND SALTS THEREOF AND USE THEREOF AS HERBICIDAL AGENTS” (Bayer Aktiengesellschaft, priority 2019, published 2022)

Tests used:
Format in all cases: in vivo
Pharbitis purpurea [1] = assay: Post-emergence herbicidal action; conditions: Ipomoea purpurea, 504 h, application rate 5 g/ha, read-out: Pharbitis purpurea (efficacy in %)
Method in brief: (§1)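 Plants grown from seed in sandy loam in the greenhouse were sprayed at the one-leaf stage, 2 to 3 weeks after sowing, with WP or EC formulations in water plus 0.5% additive at 20 g/ha or less. Activity was rated visually after about 3 weeks against untreated controls (100% = plants died, 0% = like control).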

Veronica persica [2] = assay: Post-emergence herbicidal action; conditions: Veronica persica, 504 h, application rate 5 g/ha, read-out: Veronica persica (efficacy in %)
Method in brief: as §1

Setaria viridis [3] = assay: Post-emergence herbicidal action; conditions: 504 h, application rate 5 g/ha, read-out: Setaria viridis (efficacy in %)
Method in brief: as §1

Polygonum convolvulus [4] = assay: Post-emergence herbicidal action; conditions: Fallopia convolvulus, 504 h, application rate 5 g/ha, read-out: Polygonum convolvulus (efficacy in %)
Method in brief: as §1

Abutilon theophrasti [5] = assay: Post-emergence herbicidal action; conditions: Abutilon theophrasti, 504 h, application rate 5 g/ha, read-out: Abutilon theophrasti (efficacy in %)
Method in brief: as §1

Matricaria inodora [6] = assay: Post-emergence herbicidal action; conditions: Tripleurospermum inodorum, 504 h, application rate 5 g/ha, read-out: Matricaria inodora (efficacy in %)
Method in brief: as §1

Triticum aestivum [7] = assay: Post-emergence crop plant compatibility
Method in brief: (§2)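 Values are visual % effects about 3 weeks after treatment, relative to untreated plants (0% = like control, 100% = plant death). Crops sown in sandy loam under greenhouse conditions were treated post-emergence at the one-leaf stage (2–3 weeks). Compounds were applied as WP or EC sprays with 0.5% additive at […] water.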

Oryza sativa = assay: Post-emergence crop plant compatibility; conditions: application rate 5 g/ha
Method in brief: as §2

Brassica napus [8] = assay: Post-emergence crop plant compatibility
Method in brief: as §2

Pharbitis purpurea [9] = assay: Pre-emergence herbicidal action; conditions: application rate 80 g/ha, scored after about 3 weeks
Description: (§3) Seeds of monocotyledonous and dicotyledonous weed plants and crop plants were placed in plastic or organic planting pots and covered with soil. The compounds of the invention, formulated in the form of wettable powders (WP) or as emulsion concentrates (EC), were then applied to the surface of the covering soil as aqueous suspension or emulsion with addition of 0.5% additive at a water application rate equivalent to […] (converted). After the treatment, the pots were placed in a greenhouse and kept under good growth conditions for the test plants. After about 3 weeks, the effect of the preparations was scored visually in comparison with untreated controls as percentages. For example, 100% activity=the plants have died, 0% activity=like control plants.
(§4) Tables B1 to B11 below show the effects of selected compounds of the general formula (I) according to Tables I.1 to I.34 on various harmful plants and at an application rate corresponding to 80 g/ha and less, which were obtained by the experimental procedure mentioned above.

Viola tricolor = assay: Pre-emergence herbicidal action; conditions: application rate 20 g/ha, scored after about 3 weeks
Description: as §3, §4

Veronica persica [10] = assay: Pre-emergence herbicidal action; conditions: scored after about 3 weeks
Description: as §3, §4

Setaria viridis [11] = assay: Pre-emergence herbicidal action; conditions: application rate 80 g/ha, scored after about 3 weeks
Description: as §3, §4

Alopecurus myosuroides = assay: Pre-emergence herbicidal action; conditions: application rate 80 g/ha
Description: as §3, §4

Polygonum convolvulus [12] = assay: Pre-emergence herbicidal action; conditions: scored after about 3 weeks
Description: as §3, §4

Echinochloa crus-galli = assay: Pre-emergence herbicidal action; conditions: application rate 80 g/ha, scored after about 3 weeks
Description: as §3, §4

Amaranthus retroflexus = assay: Pre-emergence herbicidal action; conditions: scored after about 3 weeks
Description: as §3, §4

Abutilon theophrasti [13] = assay: Pre-emergence herbicidal action; conditions: application rate 80 g/ha, scored after about 3 weeks
Description: as §3, §4

Matricaria inodora [14] = assay: Pre-emergence herbicidal action; conditions: application rate 80 g/ha, scored after about 3 weeks
Description: as §3, §4

Digitaria sanguinalis = assay: Pre-emergence herbicidal action; conditions: application rate 80 g/ha, scored after about 3 weeks
Description: as §3, §4

Zea mays = assay: Pre-emergence crop plant compatibility
Description: as §3
(§5) Here, the observed effects on selected crop plants are stated in comparison to the untreated controls (values in %).

Triticum aestivum [15] = assay: Pre-emergence crop plant compatibility; conditions: application rate 20 g/ha
Description: as §3, §5

Brassica napus [16] = assay: Pre-emergence crop plant compatibility; conditions: application rate 20 g/ha
Description: as §3, §5

Glycine max = assay: Pre-emergence crop plant compatibility; conditions: application rate 80 g/ha
Description: as §3, §5

CCOC(=O)CCOc1ncccc1Sc1cc(-n2c(=O)cc(C(F)(F)F)n(N)c2=O)c(F)cc1Cl [I.5-442, Ethyl 3-{[3-({5-[3-amino-2,6-dioxo-4-(trifluoromethyl)-3,6-dihydropyrimidin-1(2H)-yl]-2-chloro-4-fluorophenyl}sulfanyl)pyridin-2-yl]oxy}propanoate]
90%: pest or weed control at 5 g/ha (Setaria viridis [3]) | Veronica persica (efficacy in %) (Veronica persica [10]; application rate 20 g/ha) | Matricaria inodora (efficacy in %) (Matricaria inodora [14])
10%: Triticum aestivum (efficacy in %) (Triticum aestivum [7]; application rate 1.25 g/ha)
20%: Triticum aestivum (efficacy in %) (Triticum aestivum [7]; application rate 5 g/ha) | Oryza sativa (efficacy in %) (Oryza sativa) | Brassica napus (efficacy in %) (Brassica napus [8]; application rate 5 g/ha) | Zea mays (efficacy in %) (Zea mays; application rate 80 g/ha) | Triticum aestivum (efficacy in %) (Triticum aestivum [15])
80%: pest or weed control at 5 g/ha (Matricaria inodora [6]) | Alopecurus myosuroides (efficacy in %) (Alopecurus myosuroides) | Echinochloa crus-galli (efficacy in %) (Echinochloa crus-galli) | Digitaria sanguinalis (efficacy in %) (Digitaria sanguinalis)
100%: pest or weed control at 5 g/ha (Pharbitis purpurea [1]) | pest or weed control at 5 g/ha (Veronica persica [2]) | pest or weed control at 5 g/ha (Polygonum convolvulus [4]) | pest or weed control at 5 g/ha (Abutilon theophrasti [5]) | Pharbitis purpurea (efficacy in %) (Pharbitis purpurea [9]) | Viola tricolor (efficacy in %) (Viola tricolor) | Veronica persica (efficacy in %) (Veronica persica [10]; application rate 80 g/ha) | Setaria viridis (efficacy in %) (Setaria viridis [11]) | Polygonum convolvulus (efficacy in %) (Polygonum convolvulus [12]; application rate 20 g/ha) | Polygonum convolvulus (efficacy in %) (Polygonum convolvulus [12]; application rate 80 g/ha) | Amaranthus retroflexus (efficacy in %) (Amaranthus retroflexus; application rate 20 g/ha) | Amaranthus retroflexus (efficacy in %) (Amaranthus retroflexus; application rate 80 g/ha) | Abutilon theophrasti (efficacy in %) (Abutilon theophrasti [13])
0%: Brassica napus (efficacy in %) (Brassica napus [8]) | Zea mays (efficacy in %) (Zea mays; application rate 20 g/ha) | Brassica napus (efficacy in %) (Brassica napus [16]) | Glycine max (efficacy in %) (Glycine max)
